Biological target: native CB1 receptors (Rattus norvegicus, UniProt P20272)
Test: CB1 receptor rat binding assay ([3H]SR141716A, rat brain membranes)
Settings: rat brain membranes, [3H]SR141716A; for Ki: read-out: Binding rat pKi (converted)

native CB1 receptors, sequence (P20272 whole entry): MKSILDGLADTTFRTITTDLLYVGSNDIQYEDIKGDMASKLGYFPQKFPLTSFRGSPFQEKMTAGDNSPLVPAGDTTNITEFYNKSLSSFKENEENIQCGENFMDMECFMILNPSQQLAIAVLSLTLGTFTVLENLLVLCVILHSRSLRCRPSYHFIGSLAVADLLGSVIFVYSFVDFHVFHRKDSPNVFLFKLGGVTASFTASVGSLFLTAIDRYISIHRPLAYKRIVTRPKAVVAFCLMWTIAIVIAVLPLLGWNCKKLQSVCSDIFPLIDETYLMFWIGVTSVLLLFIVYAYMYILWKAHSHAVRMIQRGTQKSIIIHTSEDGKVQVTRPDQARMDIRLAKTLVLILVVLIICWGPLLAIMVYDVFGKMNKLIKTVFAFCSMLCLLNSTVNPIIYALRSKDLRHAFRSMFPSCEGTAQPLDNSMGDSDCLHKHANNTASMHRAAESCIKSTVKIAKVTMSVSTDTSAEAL

Row | SMILES | Binding rat Inh % | Ki
1 | Cc1ccsc1C1=Nc2cc(C(=O)NC3CCC(F)(F)CC3)ccc2Sc2ccccc21 [drawing 1265] | 93% | 1.58 nM
2 | O=C(NCc1cccc(Cl)c1)c1ccc2c(c1)N=C(c1ccc(F)cc1)c1ccccc1S2 [drawing 1266] |  | 1.58 nM
3 | CCCCNC(=O)c1ccc2c(c1)N=C(c1ccc(Cl)s1)c1ccc(F)cc1S2 [drawing 1267] | 93% | 20 nM
4 | O=C(NC1CCCC1)c1ccc2c(c1)N=C(c1ccc(F)cc1)c1ccccc1S2 [drawing 1268] | 84% | 20 nM
5 | CC(C)NC(=O)c1ccc2c(c1)N=C(c1cccc(Cl)c1)c1ccccc1S2 [drawing 1269] | 83% | 20 nM
6 | O=C(NCc1ccccn1)c1ccc2c(c1)N=C(c1ccc(Cl)cc1)c1ccccc1S2 [drawing 1270] | 112% | 20 nM
7 | O=C(NCc1cccs1)c1ccc2c(c1)N=C(c1cccc(Cl)c1)c1ccccc1S2 [drawing 1272] | 109% | 2 nM
8 | O=C(NCCC(F)(F)F)c1ccc2c(c1)N=C(c1ccc(Cl)s1)c1ccccc1S2 [drawing 1273] | 85% | 2 nM
9 | CCCCNC(=O)c1ccc2c(c1)N=C(c1ccc(Cl)c(F)c1)c1ccccc1S2 [drawing 1274] | 96% | 2 nM
10 | O=C(NCc1ccccc1Br)c1ccc2c(c1)N=C(N1CCCCC1)c1ccccc1S2 [drawing 1275] |  | 20 nM
11 | CCCNC(=O)c1ccc2c(c1)N=C(c1ccc(Cl)cc1F)c1ccccc1S2 [drawing 1276] | 98% | 20 nM
12 | Cc1ccsc1C1=Nc2cc(C(=O)NCc3ccco3)ccc2Sc2ccccc21 [drawing 1277] | 85% | 20 nM
13 | O=C(NCc1cccnc1)c1ccc2c(c1)N=C(c1cccc(Br)c1)c1ccccc1S2 [drawing 1278] | 80% | 20 nM
14 | O=C(NCc1cccs1)c1ccc2c(c1)N=C(c1ccc(Cl)cc1)c1ccccc1S2 [drawing 1279] | 94% | 2 nM
15 | O=C(NCCc1ccc(Cl)cc1)c1ccc2c(c1)N=C(C1CCCCC1)c1ccccc1S2 [drawing 1280] |  | 2 nM
16 | O=C(NCCc1ccc(Cl)cc1)c1ccc2c(c1)N=C(c1cccc(Cl)c1)c1ccccc1S2 [drawing 1281] |  | 2 nM
17 | COc1ccc(C2=Nc3cc(C(=O)NC4CCCCC4)ccc3Sc3ccccc32)cc1 [drawing 1282] | 91% | 2 nM
18 | O=C(NCCc1cccc(Cl)c1)c1ccc2c(c1)N=C(c1ccc(Cl)cc1)c1ccccc1S2 [drawing 1283] |  | 20 nM
19 | CCCC1=Nc2cc(C(=O)NC3CCCC(C)C3C)ccc2Sc2ccccc21 (stereo not drawn) [drawing 1284] |  | 20 nM
20 | CCCC1=Nc2cc(C(=O)NCCc3ccc(Cl)cc3)ccc2Sc2ccccc21 [drawing 1285] |  | 20 nM
21 | CCCNC(=O)c1ccc2c(c1)N=C(c1cccc(F)c1)c1ccccc1S2 [drawing 1286] | 84% | 20 nM
22 | O=C(NCc1ccc(F)cc1)c1ccc2c(c1)N=C(c1ccc(Cl)cc1)c1ccccc1S2 [drawing 1287] |  | 2 nM
23 | CC(CNC(=O)c1ccc2c(c1)N=C(c1ccc(Cl)cc1)c1ccccc1S2)c1ccccc1 (stereo not drawn) [drawing 1288] |  | 2 nM
24 | O=C(NCc1ccccc1Cl)c1ccc2c(c1)N=C(c1ccc(F)cc1)c1ccccc1S2 [drawing 1291] |  | 20 nM

Row | SMILES | Binding rat Inh % | Ki
25 | CCCC1=Nc2cc(C(=O)NCCN(CC)c3ccccc3)ccc2Sc2ccccc21 [drawing 1292] |  | 20 nM
26 | O=C(NCCc1cccnc1)c1ccc2c(c1)N=C(c1cccc(Cl)c1)c1ccccc1S2 [drawing 1293] | 97% | 20 nM
27 | O=C(NCc1ccncc1)c1ccc2c(c1)N=C(c1ccc(Cl)cc1)c1ccccc1S2 [drawing 1294] | 77% | 20 nM
28 | O=C(NCCc1ccccc1)c1ccc2c(c1)N=C(c1ccc(Cl)cc1)c1ccccc1S2 [drawing 1295] |  | 2.51 nM
29 | CCN(CCNC(=O)c1ccc2c(c1)N=C(C1CCCCC1)c1ccccc1S2)c1ccccc1 [drawing 1296] |  | 2.51 nM
30 | CCN(CCNC(=O)c1ccc2c(c1)N=C(c1ccc(F)cc1)c1ccccc1S2)c1ccccc1 [drawing 1297] |  | 2.51 nM
31 | CCN(CCNC(=O)c1ccc2c(c1)N=C(c1cccc(Cl)c1)c1ccccc1S2)c1ccccc1 [drawing 1298] |  | 2.51 nM
32 | O=C(NCc1ccc(F)cc1)c1ccc2c(c1)N=C(c1ccccc1F)c1ccccc1S2 [drawing 1299] |  | 20 nM
33 | CCCCNC(=O)c1ccc2c(c1)N=C(c1ccccc1)c1ccccc1S2 [drawing 1300] |  | 20 nM
34 | O=C(NCc1ccc(F)cc1)c1ccc2c(c1)N=C(c1ccc(Cl)cc1)c1ccccc1[S+]2[O-] (stereo not drawn) [drawing 1301] |  | 20 nM
35 | CCN(CCNC(=O)c1ccc2c(c1)N=C(c1ccccc1F)c1ccccc1S2)c1ccccc1 [drawing 1302] |  | 20 nM
36 | CC(C)CNC(=O)c1ccc2c(c1)N=C(c1ccsc1)c1ccccc1S2 [drawing 1303] | 90% | 2.51 nM
37 | CC(CNC(=O)c1ccc2c(c1)N=C(c1cccc(Cl)c1)c1ccccc1S2)c1ccccc1 (stereo not drawn) [drawing 1304] |  | 2.51 nM
38 | O=C(NN1CCCCC1)c1ccc2c(c1)N=C(c1ccc(Cl)c(Cl)c1)c1ccccc1S2 [drawing 1305] | 96% | 2.51 nM
39 | O=C(NC1CCCCC1)c1ccc2c(c1)N=C(c1cccc(F)c1)c1ccccc1S2 [drawing 1306] | 84% | 3.16 nM
40 | CC(C)CNC(=O)c1ccc2c(c1)N=C(c1ccccc1F)c1ccccc1S2 [drawing 1307] | 90% | 20 nM
41 | Cc1cccc(C2=Nc3cc(C(=O)NCCC(F)(F)F)ccc3Sc3ccccc32)n1 [drawing 1308] | 91% | 20 nM
42 | O=C(NC1CCCC1)c1ccc2c(c1)N=C(c1cccc(F)c1)c1ccccc1S2 [drawing 1310] | 82% | 25.1 nM
43 | CCCCNC(=O)c1ccc2c(c1)N=C(c1ccc(Cl)c(Cl)c1)c1ccccc1S2 [drawing 1311] | 94% | 3.16 nM
44 | Cc1csc(CNC(=O)c2ccc3c(c2)N=C(c2ccsc2)c2ccccc2S3)c1 [drawing 1313] | 106% | 3.16 nM
45 | CC(C)CNC(=O)c1ccc2c(c1)N=C(c1ccc(Cl)cc1)c1ccccc1S2 [drawing 1314] | 92% | 3.16 nM
46 | O=C(NCc1cccc(Cl)c1)c1ccc2c(c1)N=C(N1CCCCC1)c1ccccc1[S+]2[O-] (stereo not drawn) [drawing 1315] |  | 25.1 nM
47 | O=C(NCc1ccc(F)cc1)c1ccc2c(c1)N=C(c1ccc(Cl)cc1)c1ccccc1S2(=O)=O [drawing 1316] |  | 25.1 nM
48 | CCCCNC(=O)c1ccc2c(c1)N=C(c1ccc(Cl)cn1)c1ccc(F)cc1S2 [drawing 1317] | 86% | 25.1 nM

Row | SMILES | Binding rat Inh % | Ki
49 | O=C(NCc1cccnc1)c1ccc2c(c1)N=C(c1ccccc1F)c1ccccc1S2 [drawing 1318] | 73% | 25.1 nM
50 | CC(C)CNC(=O)c1ccc2c(c1)N=C(c1ccc(F)cc1)c1ccccc1S2 [drawing 1319] | 87% | 3.16 nM
51 | Cc1ccc(CNC(=O)c2ccc3c(c2)N=C(c2ccc(Cl)c(Cl)c2)c2ccccc2S3)o1 [drawing 1320] | 96% | 3.16 nM
52 | O=C(NN1CCCCC1)c1ccc2c(c1)N=C(c1ccc(F)c(Cl)c1)c1ccccc1S2 [drawing 1321] | 100% | 3.16 nM
53 | O=C(NCCc1ccccc1)c1ccc2c(c1)N=C(c1cccc(Cl)c1)c1ccccc1S2 [drawing 1322] |  | 3.16 nM
54 | CCOCCNC(=O)c1ccc2c(c1)N=C(c1cccc(Br)c1)c1ccccc1S2 [drawing 1323] | 76% | 25.1 nM
55 | O=C(NCc1ccccc1Cl)c1ccc2c(c1)N=C(c1ccccc1)c1ccccc1S2 [drawing 1324] |  | 25.1 nM
56 | CCCCNC(=O)c1ccc2c(c1)N=C(N1CCCCC1)c1ccccc1S2 [drawing 1325] |  | 25.1 nM
57 | O=C(NCc1ccc(F)cc1)c1ccc2c(c1)N=C(C1CCCCC1)c1ccccc1S2(=O)=O [drawing 1326] |  | 25.1 nM
58 | O=C(NCCCc1ccccc1)c1ccc2c(c1)N=C(c1cccc(Cl)c1)c1ccccc1S2 [drawing 1327] |  | 3.16 nM
59 | O=C(NCc1ccccc1)c1ccc2c(c1)N=C(c1cccc(Cl)c1)c1ccccc1S2 [drawing 1328] |  | 3.16 nM
60 | CC(CNC(=O)c1ccc2c(c1)N=C(C1CCCCC1)c1ccccc1S2)c1ccccc1 (stereo not drawn) [drawing 1329] |  | 3.16 nM
61 | CC(C)CCNC(=O)c1ccc2c(c1)N=C(c1ccc(F)cc1)c1ccccc1S2 [drawing 1330] | 91% | 3.98 nM
62 | O=C(NCCc1cccc(Cl)c1)c1ccc2c(c1)N=C(c1cccc(Cl)c1)c1ccccc1S2 [drawing 1331] |  | 25.1 nM
63 | O=C(NCCc1ccccc1)c1ccc2c(c1)N=C(c1ccccc1)c1ccccc1S2 [drawing 1332] |  | 25.1 nM
64 | O=C(NCCc1cccnc1)c1ccc2c(c1)N=C(c1cccc(F)c1)c1ccccc1S2 [drawing 1333] | 94% | 25.1 nM
65 | O=C(NCCc1cccnc1)c1ccc2c(c1)N=C(c1ccc(Cl)cc1)c1ccccc1S2 [drawing 1334] | 103% | 25.1 nM
66 | O=C(NCCc1ccccc1)c1ccc2c(c1)N=C(c1ccc(F)cc1)c1ccccc1S2 [drawing 1335] |  | 3.98 nM
67 | O=C(NCc1ccc(F)cc1)c1ccc2c(c1)N=C(C1CCCCC1)c1ccccc1S2 [drawing 1336] |  | 3.98 nM
68 | O=C(NCCC(F)(F)F)c1ccc2c(c1)N=C(c1cccc(F)c1)c1ccccc1S2 [drawing 1337] | 108% | 3.98 nM
69 | O=C(NCc1cccc(Cl)c1)c1ccc2c(c1)N=C(C1CCCCC1)c1ccccc1S2 [drawing 1338] |  | 3.98 nM
70 | O=C(NCCc1ccncc1)c1ccc2c(c1)N=C(c1ccc(Cl)cc1)c1ccccc1S2 [drawing 1339] | 96% | 25.1 nM
71 | O=C(NCCc1ccccn1)c1ccc2c(c1)N=C(c1ccc(Cl)cc1)c1ccccc1S2 [drawing 1340] | 60% | 25.1 nM
